Source: US20120208204A1, “Compositions and Methods for Inhibiting Tumor Growth” (The Brigham and Women's Hospital, Inc., priority 2009, published 2012)
Where two headings read alike, the source gives them in different places.

Legend:
PAK3 = target: T1, PAK3 (Homo sapiens, UniProt O75914); assay: Enzyme based PAK3 kinase assay (HTRF / TR-FRET), IC50; assay type: biochemical; conditions: PAK3 inhibitory compounds; IC50 done in quadruplicate
T1 construct: Recombinant human full length PAK3 enzyme was obtained (Invitrogen); purchased Invitrogen
Protocol: Recombinant human full length PAK3 enzyme was obtained (Invitrogen), immediately aliquoted and kept in storage buffer as purchased at −80° C. for long term storage. The HTRF® KinEASE™ kit (CisBio) containing 5× stock solution of the enzymatic buffer and 1× detection buffer, STK substrate 2-biotin (S2), a phosphospecific monoclonal Europium-labeled Cryptate antibody, which recognizes a phospholylation epitope of the biotinylated peptide, as donor fluorophore and Stretptavadin-linked XL665 (SA-XL665) representing the acceptor fluorophor were used for TR-FRET assays. The compound library consisted of approximately 125,000 small molecules, including compounds approved by the Food and Drug Administration (FDA), a purified natural products library and commercially available compounds from various vendors. All small molecules generally adhere to Lipinski's rules and have been optimized for maximization of molecular diversity.
An enzyme based kinase assay was carried out using full length recombinant PAK3 kinase. A model biotinylated peptide RRRSLLE (SEQ ID NO:5) was used as the substrate. Detection was done by Homogeneous Time Resolve Fluorescence (HTRF) with an antibody that recognizes the phosphorylation site on the peptide.
TR-FRET assays were carried out as follows. A CRS CataLyst Express robotic arm and a Cybi-well 384 channel simultaneous pipettor were used to carry out the High-Throughput Screen. Kinase reactions were performed in 50 mM HEPES, pH 7.0, 0.02% NaN3, 2 mM MgCl2, 0.01% BSA, 0.1 mM Orthonanadate, 1 mM DTT, 0.001% Tween-20, 0.001% Brij-35 using ProxiPlate-384 Plus white assay plates. […] The kinase reaction was initiated by addition of […] per reaction (25 μM ATP final, at the Km). The reaction was incubated for 30 minutes at room temperature. Reaction was terminated by addition of 10 μl of a premixed solution of EDTA, Europium cryptate-labeled antibody and fluorophore-conjugated streptavadin. After overnight incubation at room temperature, TR-FRET measurements were performed using a PHERAstar HTS microplate reader, and were expressed as ratios of acceptor fluorescence at 665 nm over donor fluorescence at 620 nm.
(§1) Data were analyzed using GraphPad Prism Version 5 (GraphPad Software Inc., La Jolla, Calif., USA). Each compound plate included one column of negative controls, were no enzyme was added, and another column for positive controls when no inhibitor compound was added; these were used to calculate Z′ factors and signal to noise ratios throughout the screen. […] IC50 determinations were done in quadruplicate for each compound using different adding sequences for compound and enzyme-substrate-mix. EC50 determinations were done in triplicate for each compound using different time points. For calculation of IC50 and EC50 concentrations, respectively, mean inhibition dose response curves were fitted to the sigmoidal response equation: Y=Bottom+(Top−Bottom)/(1+10̂((X−LogIC50))) were X is log(compound concentration) and Y is % inhibition, and Bottom and Top are the lower and upper plateau. Km concentrations were determined by non-linear regression curve fitting, using the equation: Y=Vmax*X/(Km+X), where X is the substrate concentration.

HeLa cells = assay: Cell-based assay in HeLa cells (AlamarBlue cell viability), EC50; parameters: species or system human
Protocol: HeLa cells (ATCC) were maintained in Dulbecco's modified Eagle medium (DMEM) supplemented with 10% fetal bovine serum and 1% Penicillin/Streptomycin. Approximately 200 to 500 cells per well were seeded in a 96 well tissue culture plates. Following 24 h growth in normal DMEM, the individual compounds were warmed up to room temperature and diluted in DMEM to their according concentration and then immediately added to the wells. One column on each assay plate contained DMEM only (“neg. control”) and one column contained untreated HeLa cells as “pos. control”. Cells were treated with the compounds at various cell densities and for treatment periods ranging between 75 hrs and approx. 200 hrs. To control for cell viability, we assayed plates using AlamarBlue° (Invitrogen), which uses a redox reaction to measure metabolically active viable cells. At each time point the culture media was removed and a solution of 10% AlamarBlue reagent and DMEM was added to each well to measure cell viability. Fluorescence was measured after 1-2 hrs incubation at 37 C on a Victor^2 Plate Reader (PerkinElmer).
as §1
Compounds were tested in a cell-based assay (HeLa cells). IC50 and EC50 are expressed in micromolar units.

SGK2 = assay: Inhibition of kinase activity by SGK2 inhibitory compounds, single concentration; assay type: biochemical; conditions: 10 μM compound
From the text: A library of compounds was screened for inhibitors of SGK2 and PAK3 activity by assaying phosphorylation of a generic peptide substrate either directly; or indirectly by inhibiting upstream kinase PDK1 from activating the enzyme in vitro. In both cases, the phosphorylated substrate was detected using a specific anti-phospho peptide antibody that is coupled with Eu^3+ Cryptate and XL665 conjugated with streptavidin. […] All initial hits were re-assayed as a dose response series with eight 3-fold dilutions and resulting final concentrations ranged from 0.9 nM to 20 μM.

[1] = 75 h treatment, read-out: EC50 75 h
[2] = 150 h treatment, read-out: EC50 150 h
[3] = read-out: EC50 100 h, 100 h treatment

T1 sequence (O75914 1-544 isoform O75914-2): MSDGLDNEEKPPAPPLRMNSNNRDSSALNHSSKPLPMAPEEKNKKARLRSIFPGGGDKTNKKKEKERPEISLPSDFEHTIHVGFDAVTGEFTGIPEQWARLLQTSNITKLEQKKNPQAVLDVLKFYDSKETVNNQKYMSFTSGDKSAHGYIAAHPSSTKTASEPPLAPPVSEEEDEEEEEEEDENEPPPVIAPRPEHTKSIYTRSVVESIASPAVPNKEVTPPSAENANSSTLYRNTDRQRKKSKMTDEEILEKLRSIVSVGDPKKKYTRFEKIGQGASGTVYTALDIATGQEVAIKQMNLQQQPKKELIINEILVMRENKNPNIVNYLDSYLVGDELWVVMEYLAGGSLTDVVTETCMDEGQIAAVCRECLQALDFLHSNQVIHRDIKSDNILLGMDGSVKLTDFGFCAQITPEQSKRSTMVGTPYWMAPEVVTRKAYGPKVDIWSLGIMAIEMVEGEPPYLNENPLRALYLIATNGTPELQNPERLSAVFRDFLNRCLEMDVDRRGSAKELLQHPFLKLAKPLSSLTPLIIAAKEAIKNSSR

Structure (SMILES)	IC50 (PAK3)	EC50 (HeLa cells; [1])	EC50 (HeLa cells; [2])	EC50 (HeLa cells; [3])	% Inhibition at 10 μM (SGK2)
Cc1ccc(-c2c(C#N)c(SCC(=O)c3ccc(O)c(O)c3)nc3c2CCCC3)o1 [LDN-0026056]	0.69 µM	13.9 µM	18 µM	16.9 µM	
N#Cc1c(N)nc(SCc2ccccc2)c(C#N)c1-c1ccc(O)cc1 [LDN-0028618]	0.3 µM	13.3 µM	18.1 µM	16.6 µM	87%
Cc1cc(-c2ccco2)c(C#N)c(SCC(=O)c2ccc(O)c(O)c2)n1 [LDN-0041012]	0.61 µM	4.6 µM	3.4 µM	4.6 µM	95%
COc1ccc(-c2nc(-c3ccc(Sc4ccccc4)cc3)c(-c3ccccc3)[nH]2)cc1 [LDN-0044878]	0.03 µM	10.7 µM	11.1 µM	15.5 µM	79%
Cc1nc(-c2ccccc2)c(-c2ccccc2)[nH]1 [LDN-0091420]	10.1 µM	38.2 µM	42.5 µM	40.7 µM	

Next, values leading:

IC50 (PAK3)	EC50 (HeLa cells; [1])	EC50 (HeLa cells; [2])	EC50 (HeLa cells; [3])	% Inhibition at 10 μM (SGK2)	Structure (SMILES)
3.53 µM	17.6 µM	23.3 µM	34 µM		Cc1cc(C)c(C#N)c(SCC(=O)c2ccc(O)c(O)c2)n1 [LDN-0211955]
0.33 µM	11.2 µM	10.6 µM	11.6 µM		N#Cc1c(N)nc(SCc2ccccc2)c(C#N)c1-c1ccccc1Cl [LDN-0211958]
0.28 µM	11.1 µM	10.4 µM	12.7 µM		Cc1ccccc1-c1c(C#N)c(N)nc(SCc2ccccc2)c1C#N [LDN-0211959]
